# Where two headings read alike, the source gives them in different places.
# Assays:
# Format in all cases: cell-based
# M1 muscarinic receptor = biological target: T1, M1 muscarinic receptor (Homo sapiens, UniProt P11229); assay: Functional mobilization of intracellular calcium (FLIPR) in CHO cells expressing M1; details: for EC50: CHO cells expressing M1, FLIPR calcium; for Emax: CHO; for M1 Activity: CHO cells expressing M1, FLIPR calcium assay
# T1 construct: expressed in transfected cells; host or cells: CHO (M1-CHO)
# T1 sequence (P11229 1-460): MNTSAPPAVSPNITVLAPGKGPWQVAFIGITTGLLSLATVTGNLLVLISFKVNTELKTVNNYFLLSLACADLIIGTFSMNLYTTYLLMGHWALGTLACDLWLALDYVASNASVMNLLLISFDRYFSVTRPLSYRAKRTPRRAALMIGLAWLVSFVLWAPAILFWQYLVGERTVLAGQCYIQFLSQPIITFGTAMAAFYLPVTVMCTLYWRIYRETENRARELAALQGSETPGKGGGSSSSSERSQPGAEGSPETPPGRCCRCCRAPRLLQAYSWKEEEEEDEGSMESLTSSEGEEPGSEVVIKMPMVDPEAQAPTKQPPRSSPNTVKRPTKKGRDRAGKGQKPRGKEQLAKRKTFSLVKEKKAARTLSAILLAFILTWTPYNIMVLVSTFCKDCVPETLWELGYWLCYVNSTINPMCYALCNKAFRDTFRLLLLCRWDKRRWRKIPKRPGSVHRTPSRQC
# Summary of the method: (§1)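 Calcium flux is read on FLIPR over 60 sec at 488/540 nm in muscarinic-receptor CHO lines. Antagonist mode adds carbachol at EC80 after 15 min compound preincubation or with simultaneous co-application. Agonist mode adds compound alone. Cells carry Fluo-3 or Calcium 3 dye in probenecid-containing pH 7.4 buffer, 0.5% DMSO final.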
# M2 muscarinic receptor = biological target: T2, M2 muscarinic receptor (Homo sapiens, UniProt P08172); assay: Functional mobilization of intracellular calcium (FLIPR) in CHO cells expressing M2; details: for EC50: CHO cells expressing M2, FLIPR calcium; for Emax: CHO; for M2 Activity: CHO cells expressing M2, FLIPR calcium assay
# T2 construct: expressed in transfected cells; host or cells: CHO (M2-CHO)
# T2 sequence (P08172 1-466): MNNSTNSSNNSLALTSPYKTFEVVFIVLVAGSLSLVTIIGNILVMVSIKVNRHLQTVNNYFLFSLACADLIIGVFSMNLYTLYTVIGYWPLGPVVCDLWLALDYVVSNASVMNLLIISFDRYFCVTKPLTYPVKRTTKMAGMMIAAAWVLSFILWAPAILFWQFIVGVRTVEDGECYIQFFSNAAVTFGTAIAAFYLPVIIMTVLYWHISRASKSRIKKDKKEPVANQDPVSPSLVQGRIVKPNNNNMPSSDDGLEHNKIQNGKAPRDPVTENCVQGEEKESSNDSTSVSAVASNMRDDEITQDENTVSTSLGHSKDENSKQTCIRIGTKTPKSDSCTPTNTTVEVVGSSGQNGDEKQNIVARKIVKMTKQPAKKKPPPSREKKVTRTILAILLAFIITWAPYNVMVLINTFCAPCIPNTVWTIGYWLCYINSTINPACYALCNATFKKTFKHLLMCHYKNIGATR
# Summary of the method: as §1
# M3 muscarinic receptor = biological target: T3, M3 muscarinic receptor (Homo sapiens, UniProt P20309); assay: Functional mobilization of intracellular calcium (FLIPR) in CHO cells expressing M3; details: for EC50: CHO cells expressing M3, FLIPR calcium; for Emax: CHO; for M3 Activity: CHO cells expressing M3, FLIPR calcium assay
# T3 construct: expressed in transfected cells; host or cells: CHO (M3-CHO)
# Summary of the method: as §1
# M4 muscarinic receptor = biological target: T4, M4 muscarinic receptor (Homo sapiens, UniProt P08173); assay: Functional mobilization of intracellular calcium (FLIPR) in CHO cells expressing M4; details: for EC50: CHO cells expressing M4, FLIPR calcium; for Emax: CHO; for M4 Activity: CHO cells expressing M4, FLIPR calcium assay
# T4 construct: expressed in transfected cells; host or cells: CHO (M4-CHO)
# T4 sequence (P08173 1-479): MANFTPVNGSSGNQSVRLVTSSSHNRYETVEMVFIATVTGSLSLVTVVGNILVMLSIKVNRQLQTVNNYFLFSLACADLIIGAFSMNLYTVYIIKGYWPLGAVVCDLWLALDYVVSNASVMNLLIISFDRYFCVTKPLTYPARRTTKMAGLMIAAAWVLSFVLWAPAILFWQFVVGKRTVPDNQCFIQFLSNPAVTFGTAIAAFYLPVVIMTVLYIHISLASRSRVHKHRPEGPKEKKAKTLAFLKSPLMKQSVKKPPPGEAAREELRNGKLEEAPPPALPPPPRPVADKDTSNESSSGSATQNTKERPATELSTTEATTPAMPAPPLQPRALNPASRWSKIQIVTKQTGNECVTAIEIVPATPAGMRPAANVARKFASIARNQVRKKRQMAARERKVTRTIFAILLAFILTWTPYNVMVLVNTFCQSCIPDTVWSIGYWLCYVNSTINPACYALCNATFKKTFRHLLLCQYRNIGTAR
# Summary of the method: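 Read-out: FLIPR fluorescence (ex 488, em 540 nm) over 60 s. Recombinant CHO lines are dye-loaded (Fluo-3 AM or Calcium 3) with 1 mM probenecid. For antagonist mode, compound is pre-incubated 15 min, or co-applied, then carbachol is added at 3× EC80 per subtype.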
# [1] = 100% = maximum response obtained with the Carbachol control, read-out: M1 Efficacy
# [2] = 100% = maximum response obtained with the Carbachol control, read-out: M2 Efficacy
# [3] = 100% = maximum response obtained with the Carbachol control, read-out: M3 Efficacy
# [4] = 100% = maximum response obtained with the Carbachol control, read-out: M4 Efficacy
# [5] = 100% efficacy = maximum response obtained with the Carbachol control
# T3 sequence (P20309 whole entry): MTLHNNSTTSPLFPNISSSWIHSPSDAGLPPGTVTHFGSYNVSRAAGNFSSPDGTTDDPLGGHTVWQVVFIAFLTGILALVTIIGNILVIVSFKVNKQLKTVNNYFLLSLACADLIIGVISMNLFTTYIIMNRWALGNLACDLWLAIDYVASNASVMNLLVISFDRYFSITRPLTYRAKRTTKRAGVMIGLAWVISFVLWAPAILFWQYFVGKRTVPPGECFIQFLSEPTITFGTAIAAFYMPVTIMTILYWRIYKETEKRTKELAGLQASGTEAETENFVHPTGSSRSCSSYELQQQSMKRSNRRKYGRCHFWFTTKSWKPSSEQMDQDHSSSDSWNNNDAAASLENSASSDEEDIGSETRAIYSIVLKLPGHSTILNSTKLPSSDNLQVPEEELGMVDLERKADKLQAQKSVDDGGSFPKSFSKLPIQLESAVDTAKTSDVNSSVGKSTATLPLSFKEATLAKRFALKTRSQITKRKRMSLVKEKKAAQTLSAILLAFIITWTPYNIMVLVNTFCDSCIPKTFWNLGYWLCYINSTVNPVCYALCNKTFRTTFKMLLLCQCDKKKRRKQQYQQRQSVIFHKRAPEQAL
Structure (SMILES),EC50 (M1 muscarinic receptor),Emax (M1 muscarinic receptor; [1]),EC50 (M2 muscarinic receptor),Emax (M2 muscarinic receptor; [2]),EC50 (M3 muscarinic receptor),Emax (M3 muscarinic receptor; [3]),EC50 (M4 muscarinic receptor),Emax (M4 muscarinic receptor; [4]),M1 Activity (M1 muscarinic receptor),Emax (M1 muscarinic receptor; [5]),M2 Activity (M2 muscarinic receptor),Emax (M2 muscarinic receptor; [5]),M3 Activity (M3 muscarinic receptor),Emax (M3 muscarinic receptor; [5]),M4 Activity (M4 muscarinic receptor),Emax (M4 muscarinic receptor; [5])
Cn1cnc(C(=O)N[C@@H]2CCC3(CCN(CCC(C)(C)C)CC3)c3cc(F)ccc32)c1 [compound 180],< 2 µM,25 to 100%,< 2 µM,25 to 100%,> 5 µM,< 25%,< 2 µM,25 to 100%,–,–,–,–,–,–,–,–
CCN(C(=O)COC)[C@H]1CCC2(CCN(CCC(C)(C)C)CC2)c2ccccc21 [compound 181],2 to 5 µM,25 to 100%,> 5 µM,< 25%,> 5 µM,< 25%,< 2 µM,25 to 100%,–,–,–,–,–,–,–,–
CC(C)C[C@@H](C(=O)N[C@@H]1CCC2(CCN(CCC(C)(C)C)CC2)c2ccccc21)N1CCCC1=O [compound 182],2 to 5 µM,25 to 100%,> 5 µM,< 25%,> 5 µM,< 25%,< 2 µM,25 to 100%,–,–,–,–,–,–,–,–
CCN(C(=O)CC(F)(F)F)[C@H]1CCC2(CCN(CCC(C)(C)C)CC2)c2ccccc21 [compound 183],2 to 5 µM,25 to 100%,> 5 µM,< 25%,> 5 µM,< 25%,< 2 µM,25 to 100%,–,–,–,–,–,–,–,–
CC(=O)N(C)[C@H]1CCC2(CCN(CCC(C)C)CC2)c2ccccc21 [compound 184],< 2 µM,25 to 100%,> 5 µM,< 25%,> 5 µM,< 25%,< 2 µM,25 to 100%,–,–,–,–,–,–,–,–
CC(=O)N[C@H]1CCC2(CCN(CCCC(F)(F)F)CC2)c2ccccc21 [compound 185],–,–,–,–,–,–,–,–,++ (activity was measured to be from 2.0 μM to 5.0 μM),25 to 100%,+ (activity was measured to be greater than 5.0 μM),< 25%,+ (activity was measured to be greater than 5.0 μM),25 to 100%,++ (activity was measured to be from 2.0 μM to 5.0 μM),25 to 100%
CC(=O)N1CCCCC1C(=O)N[C@@H]1CCC2(CCN(CCC(C)(C)C)CC2)c2ccccc21 (some centres unmarked) [compound 186],–,–,–,–,–,–,–,–,++ (activity was measured to be from 2.0 μM to 5.0 μM),25 to 100%,+ (activity was measured to be greater than 5.0 μM),< 25%,+ (activity was measured to be greater than 5.0 μM),< 25%,+++ (activity was measured to be less than 2.0 μM),25 to 100%
CCN(C(=O)CCNC(C)=O)[C@H]1CCC2(CCN(CCC(C)(C)C)CC2)c2ccccc21 [compound 187],–,–,–,–,–,–,–,–,+++ (activity was measured to be less than 2.0 μM),25 to 100%,+ (activity was measured to be greater than 5.0 μM),< 25%,+ (activity was measured to be greater than 5.0 μM),< 25%,+++ (activity was measured to be less than 2.0 μM),25 to 100%
CC(C)(C)CCN1CCC2(CC[C@@H](NC(=O)C3CCOCC3)c3ccccc32)CC1 [compound 188],–,–,–,–,–,–,–,–,+ (activity was measured to be greater than 5.0 μM),< 25%,+ (activity was measured to be greater than 5.0 μM),< 25%,+ (activity was measured to be greater than 5.0 μM),< 25%,+++ (activity was measured to be less than 2.0 μM),25 to 100%
CC(=O)N[C@@H]1CCC2(CCN(CCC(C)(C)C)CC2)c2cc(F)ccc21 [compound 189],–,–,–,–,–,–,–,–,+++ (activity was measured to be less than 2.0 μM),25 to 100%,+++ (activity was measured to be less than 2.0 μM),< 25%,+ (activity was measured to be greater than 5.0 μM),< 25%,+++ (activity was measured to be less than 2.0 μM),25 to 100%
CC(=O)N1CCC(C(=O)N[C@H]2CCC3(CCN(CCC(C)(C)C)CC3)c3ccccc32)CC1 [compound 191],–,–,–,–,–,–,–,–,+++ (activity was measured to be less than 2.0 μM),25 to 100%,+ (activity was measured to be greater than 5.0 μM),< 25%,+ (activity was measured to be greater than 5.0 μM),< 25%,+++ (activity was measured to be less than 2.0 μM),25 to 100%
CC(C)(C)CCN1CCC2(CC[C@@H](NC(=O)[C@H]3CCC(=O)N3)c3ccc(F)cc32)CC1 [compound 192],–,–,–,–,–,–,–,–,+ (activity was measured to be greater than 5.0 μM),< 25%,+ (activity was measured to be greater than 5.0 μM),< 25%,+ (activity was measured to be greater than 5.0 μM),< 25%,+++ (activity was measured to be less than 2.0 μM),25 to 100%
Cn1nccc1C(=O)N[C@H]1CCC2(CCN(CCC(C)(C)C)CC2)c2ccccc21 [compound 193],–,–,–,–,–,–,–,–,+++ (activity was measured to be less than 2.0 μM),25 to 100%,+ (activity was measured to be greater than 5.0 μM),< 25%,+ (activity was measured to be greater than 5.0 μM),< 25%,+++ (activity was measured to be less than 2.0 μM),25 to 100%
CC(=O)N1CCC[C@H]1C(=O)N[C@H]1CCC2(CCN(CCC(C)(C)C)CC2)c2ccccc21 [compound 194],–,–,–,–,–,–,–,–,+++ (activity was measured to be less than 2.0 μM),25 to 100%,+ (activity was measured to be greater than 5.0 μM),< 25%,+ (activity was measured to be greater than 5.0 μM),< 25%,+++ (activity was measured to be less than 2.0 μM),25 to 100%
CC(C)(C)CCN1CCC2(CC[C@H](NC(=O)Cc3cccnc3)c3ccccc32)CC1 [compound 195],–,–,–,–,–,–,–,–,+++ (activity was measured to be less than 2.0 μM),25 to 100%,+++ (activity was measured to be less than 2.0 μM),25 to 100%,+ (activity was measured to be greater than 5.0 μM),< 25%,+++ (activity was measured to be less than 2.0 μM),25 to 100%
CCOCC(=O)N[C@H]1CCC2(CCN(CCC(C)(C)C)CC2)c2cc(F)ccc21 [compound 196],–,–,–,–,–,–,–,–,+++ (activity was measured to be less than 2.0 μM),25 to 100%,+++ (activity was measured to be less than 2.0 μM),25 to 100%,+ (activity was measured to be greater than 5.0 μM),< 25%,+++ (activity was measured to be less than 2.0 μM),25 to 100%
